Legend:
p38 alpha = biological target: T1, p38 alpha (Homo sapiens, UniProt Q16539); experiment: P38 alpha enzyme inhibition assay (Alphascreen kinase activity assay); assay type: biochemical; settings: 100 pM p38 alpha, 2 hours preincubation at 25° C., 250 μM ATP, ATF-2 fusion protein; read-out: p38α inhibition
T1 construct: purchased Invitrogen PV3304
Summary of the method: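 100 pM p38 alpha preincubated 2 h at 25 °C with compound and 0.3 μg/ml ATF-2 fusion substrate (HEPES pH 7.5, MgCl2, 1% DMSO). Reaction started with 250 μM ATP, run 1 h at 25 °C, stopped with EDTA; phospho-ATF2 detected by AlphaScreen luminescence. IC50 from concentration-response curves.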

[1] = system: Peripheral Blood Mononuclear Cells (PBMCs), TNFα release; experiment: LPS-stimulated PBMC TNFα release assay; assay type: cell-based; settings: human PBMC, LPS (10 ng/ml), 18 h, compound 1 h before LPS; read-out: LPS-stimulated PBMC TNFα release inhibition
Summary of the method: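 Human PBMCs from healthy donors, serum-starved 3 h, then pre-incubated 1 h at 37 °C with compound in 1% FBS medium before LPS (10 ng/ml) for 18 h. Supernatant TNFα measured by MSD; IC50 from dose-response as % inhibition of control, at least three experiments.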

T1 sequence (Q16539 whole entry, the tested form may be a part): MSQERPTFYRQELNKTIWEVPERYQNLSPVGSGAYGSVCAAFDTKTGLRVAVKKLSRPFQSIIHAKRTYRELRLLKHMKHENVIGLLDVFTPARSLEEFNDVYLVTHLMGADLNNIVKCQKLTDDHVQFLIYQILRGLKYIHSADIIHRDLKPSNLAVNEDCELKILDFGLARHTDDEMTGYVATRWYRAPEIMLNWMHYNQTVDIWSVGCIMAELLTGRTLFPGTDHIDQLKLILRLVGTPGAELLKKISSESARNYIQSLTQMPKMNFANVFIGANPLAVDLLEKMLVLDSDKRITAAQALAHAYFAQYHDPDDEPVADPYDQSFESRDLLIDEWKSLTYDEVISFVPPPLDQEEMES

CN(CCO)CCNC(=O)c1nc(NC(=O)N[C@H]2CC[C@@H](Oc3ccc4nnc(C5(C)CC5)n4c3)c3ccccc32)cc(C(C)(C)C)n1 [Example 145, 4-(tert-butyl)-N-(2-((2-hydroxyethyl)(methyl)-amino)ethyl)-6-(3-((1S,4R)-4-((3-(1-methylcyclopropyl)-[1,2,4]triazolo[4,3-a]pyridin-6-yl)oxy)-1,2,3,4-tetrahydronaphthalen-1-yl)ureido)pyrimidine-2-carboxamide]
IC50 (p38 alpha): < 1 nM
IC50 [1]: > 5 nM
